Activity calls are given as the source filed them.
Experiments:
Cytochrome P450 2C19 = Cytochrome P450 2C19 (Homo sapiens, UniProt P33261); test: Cytochrome panel assay with activity outcomes. Panel member name: p450-cyp2c19 Compounds with AC50 equal or less than 10 uM are considered active; assay type: functional
[1] = Trypanosoma cruzi growth suppression in host cells – NIH3T3 host cells, beta-gal luminescence, confirmation (AID 2044); assay type: functional, cell-based;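 note: intracellular parasites grown in NIH/3T3 mouse fibroblasts as host cells; luminescent beta-galactosidase reporter signal from transgenic T. cruzi replicating inside host cells; inhibitors lower the luminescence signal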
[2] = NIH3T3 cell viability loss – ATP luminescence, mouse fibroblasts, counter-screen, dose response (AID 2010); assay type: functional, cell-based;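 note: cells exposed to compound for about 90 hours before reading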
[3] = target: T1, Rac GTPase-activating protein 1 (Homo sapiens, UniProt Q9H0H5); test: blockers of MgcRacGAP-driven Rac1 GTP hydrolysis – biochemical, ADP Hunter fluorescence, primary and confirmatory, confirmation (AID 624330); assay type: functional
T1 sequence (Q9H0H5 whole entry): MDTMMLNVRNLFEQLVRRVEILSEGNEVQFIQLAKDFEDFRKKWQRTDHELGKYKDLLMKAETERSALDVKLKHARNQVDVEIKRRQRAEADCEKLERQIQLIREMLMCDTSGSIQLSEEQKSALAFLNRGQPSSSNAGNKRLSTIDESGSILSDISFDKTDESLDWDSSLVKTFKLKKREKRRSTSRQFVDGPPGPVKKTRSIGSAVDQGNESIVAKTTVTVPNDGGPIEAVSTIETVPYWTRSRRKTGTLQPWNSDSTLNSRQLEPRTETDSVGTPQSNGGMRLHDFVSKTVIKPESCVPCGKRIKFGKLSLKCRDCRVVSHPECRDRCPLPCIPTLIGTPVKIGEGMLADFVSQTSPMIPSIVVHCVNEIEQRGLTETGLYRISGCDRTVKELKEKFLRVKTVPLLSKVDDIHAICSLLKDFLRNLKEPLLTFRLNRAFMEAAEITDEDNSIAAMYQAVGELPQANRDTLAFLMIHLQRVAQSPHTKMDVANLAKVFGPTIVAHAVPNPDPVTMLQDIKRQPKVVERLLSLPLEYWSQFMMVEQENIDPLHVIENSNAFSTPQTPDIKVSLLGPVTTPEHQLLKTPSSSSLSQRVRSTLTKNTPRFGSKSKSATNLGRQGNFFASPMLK

[4] = viability of uninfected HEp-2 cells – cell-based, HTS, cytotoxicity control for RSV inhibitor project, dose response (AID 2410); assay type: functional; details: human respiratory syncytial virus
[5] = target: T2, Heat shock factor protein 1 (Mus musculus, UniProt P38532); test: decrease of HSF1-responsive luciferase luminescence – cell-based, NIH3T3, dose retest, confirmation (AID 2382); assay type: functional;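 note: NIH3T3 fibroblasts with HSF1-driven luciferase reporter stressed by proteasome inhibitor MG132; luminescence from HSF1-driven luciferase expression after 8 hours of MG132 stress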
T2 sequence (P38532 whole entry): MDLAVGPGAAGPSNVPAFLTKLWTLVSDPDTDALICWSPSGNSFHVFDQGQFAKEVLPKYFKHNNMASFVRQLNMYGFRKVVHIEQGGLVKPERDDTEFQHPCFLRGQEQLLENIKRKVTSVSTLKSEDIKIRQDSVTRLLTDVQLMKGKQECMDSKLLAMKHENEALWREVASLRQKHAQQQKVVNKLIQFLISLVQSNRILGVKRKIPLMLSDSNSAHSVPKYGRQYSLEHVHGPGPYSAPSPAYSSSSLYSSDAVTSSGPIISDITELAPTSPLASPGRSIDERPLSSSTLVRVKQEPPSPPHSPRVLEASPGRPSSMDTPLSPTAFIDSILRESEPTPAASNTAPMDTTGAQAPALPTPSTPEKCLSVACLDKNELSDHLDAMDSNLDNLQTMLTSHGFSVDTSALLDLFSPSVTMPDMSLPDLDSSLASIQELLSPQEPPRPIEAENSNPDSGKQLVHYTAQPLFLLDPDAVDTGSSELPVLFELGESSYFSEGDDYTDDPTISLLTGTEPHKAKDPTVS

Cytochrome P450 1A2 = target: T3, Cytochrome P450 1A2 (Homo sapiens, UniProt P05177);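 note: PubChem cytochrome P450 panel assay, CYP1A2 panel member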
T3 sequence (P05177 whole entry): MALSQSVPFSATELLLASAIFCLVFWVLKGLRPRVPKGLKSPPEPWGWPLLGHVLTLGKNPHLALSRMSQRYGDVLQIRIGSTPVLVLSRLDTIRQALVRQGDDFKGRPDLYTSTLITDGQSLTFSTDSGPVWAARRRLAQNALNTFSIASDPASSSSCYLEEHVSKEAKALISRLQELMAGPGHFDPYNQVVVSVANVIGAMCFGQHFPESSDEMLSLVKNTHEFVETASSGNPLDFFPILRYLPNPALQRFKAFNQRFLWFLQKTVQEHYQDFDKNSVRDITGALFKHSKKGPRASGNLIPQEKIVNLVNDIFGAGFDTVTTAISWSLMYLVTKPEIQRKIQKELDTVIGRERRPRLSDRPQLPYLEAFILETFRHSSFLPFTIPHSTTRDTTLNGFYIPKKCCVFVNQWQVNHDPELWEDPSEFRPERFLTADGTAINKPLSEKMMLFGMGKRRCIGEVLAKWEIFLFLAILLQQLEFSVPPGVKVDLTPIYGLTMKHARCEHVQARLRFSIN

Cytochrome P450 2C19, sequence (P33261 whole entry): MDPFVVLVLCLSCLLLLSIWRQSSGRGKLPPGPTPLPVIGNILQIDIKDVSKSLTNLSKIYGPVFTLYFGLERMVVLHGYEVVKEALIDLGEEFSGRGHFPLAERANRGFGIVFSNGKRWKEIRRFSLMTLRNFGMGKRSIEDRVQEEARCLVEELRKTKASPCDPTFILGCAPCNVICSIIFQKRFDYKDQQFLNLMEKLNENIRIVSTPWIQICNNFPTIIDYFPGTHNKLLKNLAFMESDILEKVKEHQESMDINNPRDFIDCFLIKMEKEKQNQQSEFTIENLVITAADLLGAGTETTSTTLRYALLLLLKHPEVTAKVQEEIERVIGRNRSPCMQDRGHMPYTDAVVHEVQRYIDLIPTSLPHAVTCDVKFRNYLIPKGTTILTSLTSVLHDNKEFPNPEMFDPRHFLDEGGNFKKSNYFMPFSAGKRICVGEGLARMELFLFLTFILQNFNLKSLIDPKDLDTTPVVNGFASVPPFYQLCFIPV

## COC(=O)[C@@]1(Cc2ccc(OC)cc2)[C@H]2c3cc(C(=O)N4CCCC4)n(Cc4ccccn4)c3C[C@H]2CN1C(=O)c1ccccc1
Cytochrome P450 2C19; read-out: AC50
  AC50: 39.8 µM (inconclusive)

## Cc1cccc(NS(=O)(=O)c2cc(C(=O)N3CCc4ccccc4C3)ccc2Cl)c1C
[1]
  EC50: 2.18 µM (active)
[2]
  EC50: > 60 µM (not active)

## Cc1ccccc1OCCCN1CCCC1
Cytochrome P450 2C19; read-out: AC50
  AC50: 10 µM (inconclusive)

## Cc1cccc(OCC(=O)N2CCN(Cc3ccncc3)CC2)c1
[3]
  IC50: 82.9 µM (active)

## CN(C)CCCN(C(=O)c1cccs1)c1nc2cc3c(cc2s1)OCO3
[1]
  EC50: 0.163 µM (active)
[2]
  EC50: > 60 µM (inconclusive)

## Cc1nc(N2CCOCC2)nc(N2CCCCC2C)c1[N+](=O)[O-] (configuration not stated)
[4]
  CC50: 21.9 µM (active)

## C[C@@]12C=CC(=O)C=C1CC[C@@H]1[C@@H]2[C@H](O)C[C@]2(C)[C@@H]1CC[C@]2(O)C(=O)CO
Cytochrome P450 2C19
  AC50: inconclusive

## CCn1c(N=C(S)Nc2ccccc2)nc2ccccc21
[1]
  EC50: 0.53 µM (active)
[2]
  EC50: > 60 µM (inconclusive)

## N#C[C@@H](/N=N\c1ccccc1C(=O)O)C(N)=O
Cytochrome P450 2C19
  AC50: inconclusive

## Cc1cc(NC(=O)Cn2ccc([N+](=O)[O-])n2)no1
[5]
  EC50: > 195 µM (not active)

## CSc1ccccc1OCc1cc(C(=O)N(C)C2CCCc3ccccc32)no1 (configuration not stated)
[4]
  CC50: 20.4 µM (active)

## Oc1ccc(N2CCN(Cc3ccc(OCCCN4CCCCC4)cc3)CC2)cc1
[1]
  EC50: 0.114 µM (active)
[2]
  EC50: > 30 µM (not active)

## Cc1ccc(NC(=O)CCC(=O)NNC(=O)c2cccs2)c(C)c1
Cytochrome P450 2C19; read-out: AC50
  AC50: 28.2 µM (inconclusive)

## CCc1noc(C)c1C(=O)Nc1ccc(S(=O)(=O)N2CCC(C)CC2)cc1
[4]
  CC50: 32.9 µM (active)

## COC(=O)c1ccc(-c2sc3nc(N4CCOCC4)c4c(c3c2N)CCCC4)o1
[1]
  EC50: 2.63 µM (active)
[2]
  EC50: 13.2 µM (active)

## CCCCN(C)C(=O)C1CCN(Cc2cccc(OCc3ccccc3)c2)CC1
[3]
  IC50: 172 µM (active)

## COc1ccccc1CCNC1CCC(C(C)(C)C)CC1 (configuration not stated)
[1]
  EC50: 1.37 µM (active)
[2]
  EC50: > 60 µM (not active)

## COc1ccc2nc(Nc3ccccc3)sc2c1
[4]
  CC50: 33.6 µM (active)

## Cc1nn(Cc2c(F)c(F)c(F)c(F)c2F)c(C)c1NC(=O)c1cccc(COc2ccc(Cl)cc2)c1
Cytochrome P450 1A2
  AC50: 12.6 µM (inconclusive)

## O=c1c2c([N+](=O)[O-])cc([N+](=O)[O-])cc2[s+]([O-])n1Cc1ccccc1 (configuration not stated)
[3]
  IC50: 46.6 µM (active)

## O=C(c1ccco1)N(CCCN1CCOCC1)c1nc(-c2ccc(Cl)cc2)cs1
[1]
  EC50: 1.8 µM (active)
[2]
  EC50: > 60 µM (not active)

## Cc1ccc(CNc2ncc(-c3ccccc3)n2C)o1
[3]
  IC50: 83.2 µM (active)

## Cc1n[nH]c(-c2ccc(OCc3cnn(-c4ccccc4)c3)cc2O)c1Oc1ccc(Cl)cc1
[1]
  EC50: 2.43 µM (active)
[2]
  EC50: > 60 µM (not active)

## O=C(Cc1ccccc1)N1CCN(Cc2ccc(F)cc2)CC1
[3]
  IC50: 130 µM (active)

## Oc1ccc(Nc2ncnc3ccccc23)cc1
[3]
  IC50: 15.5 µM (active)

## COC(=O)C1Cc2c([nH]c3ccccc23)C2(CCN(Cc3ccccc3)CC2)N1 (configuration not stated)
[1]
  EC50: 1.6 µM (active)
[2]
  EC50: 10.1 µM (active)

## COc1cccc(CNc2ccc3c(c2)CCC3)c1
[1]
  EC50: 7.93 µM (active)
[2]
  EC50: > 60 µM (not active)

## CN1c2ccccc2Oc2nnc(Cl)cc21
[4]
  CC50: 43.3 µM (active)

## O=[N+]([O-])c1nn(-c2ccc3c(c2)OCCO3)[n+]([O-])c1NCCCO
[1]
  EC50: 0.75 µM (active)
[2]
  EC50: > 60 µM (not active)

## CC(C)=NNc1ncnc2[nH]cnc12
Cytochrome P450 1A2
  AC50: 0.794 µM (inconclusive)

## COc1ccc(C(=O)/C=C/c2ccc(F)cc2)c(OC(=O)c2ccc([N+](=O)[O-])cc2)c1
[4]
  CC50: 20.5 µM (active)

From ChEMBL document CHEMBL1201862, “PubChem BioAssay data set” (2004)
